Assay [1] deals with T1, Recombinant human integrin α5β1 (Homo sapiens, UniProt P05556+P08648).
T1 construct: purchased R&D Systems 3230-A5
Description: Solid Phase Receptor Assay for α5β1 Function. Particulars: binding to fibronectin-coated plate; read-out: α5β1 SPRA IC50. The method, then: Solid Phase Receptor Assay for α5β1 Function.
Wells were washed 3 times with 150 μL TBS+ and 150 μl of blocking buffer (TBS+ with 1% bovine serum albumin, Sigma A7906) were added. The plate was incubated for 1 hr at 37° C. and then washed 3× with TBS+ buffer. […] Compounds were diluted 1:100 into the integrin solution and then 50 μL added to empty wells of the washed fibronectin-coated plate according to a standard template with each sample repeated in triplicate. After incubation for two hours at room temperature, the plate was washed 3× with 150 μL of TBS+ buffer. To each well, 50 μL of biotinylated anti-α5 antibody (R&D Systems, BAF1864) at 0.5 ug/mL in TBS+/0.1% BSA were added and the plate covered and incubated for 1 hr at room temperature. After washing the plate 3× with 150 μL of TBS+ buffer, 50 μL of streptavidin-conjugated horseradish peroxidase (R&D Systems, DY998) diluted in TBS+ blocking buffer were added to the wells and the plate incubated for 20 min at room temperature. The plate was washed 3× with TBS+ buffer followed by 50 μL of room temperature TMB substrate (Sigma, T444) added to each well and the plate incubated for 20 min at room temperature. The reaction was optionally stopped with 25 μL of Stop Solution (Sigma S5689). Plates were read by colorimetric detection at 650 nm wavelength using a Tecan Safire II plate reader.

Assay [2] concerns the target T2, Recombinant human integrin αvβ8 (Homo sapiens, UniProt P06756+P26012).
T2 construct: purchased R&D Systems 4135-AV
Description: Solid Phase Receptor Assay for αvβ8 Function. Particulars: binding to LAP-coated plate; read-out: αvβ8 SPRA IC50. The method, then: Solid Phase Receptor Assay for αvβ8 Function.
Wells were washed 3 times with 150 μL TBS+ and 150 μL of blocking buffer (TBS+ with 1% bovine serum albumin, Sigma A7906) were added. The plate was incubated for 1 hr at 37° C. and then washed 3× with TBS+. […] Compounds were diluted 1:100 into the integrin solution and 50 μL added to empty wells of the washed LAP-coated plate according to a standard template with each sample repeated in triplicate. After incubation for two hours at room temperature, the plate was washed 3× with 150 μL of TBS+. To each well, 50 μL of biotinylated anti-αv antibody (R&D Systems, BAF1219) at 1 μg/mL in TBS+/0.1% BSA were added and the plate was covered and incubated for 1 hr at room temperature. After washing the plate 3× with 150 μL of TBS+ buffer, 50 μL of streptavidin-conjugated horseradish peroxidase (R&D Systems, DY998) diluted in TBS+ blocking buffer were added to the wells and the plate incubated for 20 min at room temperature. The plate was washed 3× with TBS+ followed by 50 μL of TMB substrate (Sigma T4444) added to each well and the plate incubated for 20 min at room temperature. The reaction was optionally stopped with 25 μL of Stop Solution (Sigma S5689). Plates were read by colorimetric detection at 650 nm wavelength using a Tecan Safire II plate reader.

T2 sequence (P06756 31-992 limits assumed): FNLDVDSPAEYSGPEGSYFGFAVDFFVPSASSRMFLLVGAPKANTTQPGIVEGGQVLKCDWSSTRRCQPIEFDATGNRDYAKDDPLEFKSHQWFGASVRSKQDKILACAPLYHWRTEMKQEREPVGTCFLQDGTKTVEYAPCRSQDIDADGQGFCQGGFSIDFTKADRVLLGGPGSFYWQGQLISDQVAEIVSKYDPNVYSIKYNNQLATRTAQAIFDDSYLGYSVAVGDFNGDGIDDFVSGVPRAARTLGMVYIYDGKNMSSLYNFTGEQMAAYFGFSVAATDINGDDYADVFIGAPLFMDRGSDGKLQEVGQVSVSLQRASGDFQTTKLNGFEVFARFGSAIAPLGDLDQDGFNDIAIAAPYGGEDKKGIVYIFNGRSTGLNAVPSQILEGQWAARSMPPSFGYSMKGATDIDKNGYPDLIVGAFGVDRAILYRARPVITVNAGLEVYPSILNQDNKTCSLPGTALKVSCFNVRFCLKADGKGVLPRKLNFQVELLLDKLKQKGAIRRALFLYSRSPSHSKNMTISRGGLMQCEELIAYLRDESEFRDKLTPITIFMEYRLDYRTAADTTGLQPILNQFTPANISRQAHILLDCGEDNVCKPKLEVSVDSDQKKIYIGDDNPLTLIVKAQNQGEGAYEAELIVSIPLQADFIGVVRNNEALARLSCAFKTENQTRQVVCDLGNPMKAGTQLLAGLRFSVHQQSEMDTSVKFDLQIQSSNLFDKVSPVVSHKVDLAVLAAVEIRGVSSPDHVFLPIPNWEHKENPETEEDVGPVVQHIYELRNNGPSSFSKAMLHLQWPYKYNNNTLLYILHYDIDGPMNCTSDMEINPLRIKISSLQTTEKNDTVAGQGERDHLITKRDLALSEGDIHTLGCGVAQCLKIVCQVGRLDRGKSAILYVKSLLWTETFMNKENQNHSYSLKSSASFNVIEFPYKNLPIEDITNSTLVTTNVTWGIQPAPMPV
T2 sequence (P26012 43-684 limits assumed): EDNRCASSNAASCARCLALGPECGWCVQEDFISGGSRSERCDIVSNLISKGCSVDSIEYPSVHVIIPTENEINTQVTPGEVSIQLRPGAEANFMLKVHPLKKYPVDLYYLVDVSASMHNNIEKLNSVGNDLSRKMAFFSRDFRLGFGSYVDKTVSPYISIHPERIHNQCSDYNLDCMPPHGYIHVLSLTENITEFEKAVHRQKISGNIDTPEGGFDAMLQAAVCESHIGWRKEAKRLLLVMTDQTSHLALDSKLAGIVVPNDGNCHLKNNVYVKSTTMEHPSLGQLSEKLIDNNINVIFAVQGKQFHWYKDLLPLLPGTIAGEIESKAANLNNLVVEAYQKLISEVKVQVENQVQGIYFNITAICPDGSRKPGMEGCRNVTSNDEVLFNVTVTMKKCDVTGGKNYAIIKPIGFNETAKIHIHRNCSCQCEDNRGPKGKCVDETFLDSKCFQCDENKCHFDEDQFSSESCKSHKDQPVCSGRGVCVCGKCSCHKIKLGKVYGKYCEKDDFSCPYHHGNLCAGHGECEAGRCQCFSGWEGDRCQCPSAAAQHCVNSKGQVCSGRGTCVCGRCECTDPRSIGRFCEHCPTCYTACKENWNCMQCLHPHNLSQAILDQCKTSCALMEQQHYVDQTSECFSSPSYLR
T1 sequence (P08648 42-995 limits assumed): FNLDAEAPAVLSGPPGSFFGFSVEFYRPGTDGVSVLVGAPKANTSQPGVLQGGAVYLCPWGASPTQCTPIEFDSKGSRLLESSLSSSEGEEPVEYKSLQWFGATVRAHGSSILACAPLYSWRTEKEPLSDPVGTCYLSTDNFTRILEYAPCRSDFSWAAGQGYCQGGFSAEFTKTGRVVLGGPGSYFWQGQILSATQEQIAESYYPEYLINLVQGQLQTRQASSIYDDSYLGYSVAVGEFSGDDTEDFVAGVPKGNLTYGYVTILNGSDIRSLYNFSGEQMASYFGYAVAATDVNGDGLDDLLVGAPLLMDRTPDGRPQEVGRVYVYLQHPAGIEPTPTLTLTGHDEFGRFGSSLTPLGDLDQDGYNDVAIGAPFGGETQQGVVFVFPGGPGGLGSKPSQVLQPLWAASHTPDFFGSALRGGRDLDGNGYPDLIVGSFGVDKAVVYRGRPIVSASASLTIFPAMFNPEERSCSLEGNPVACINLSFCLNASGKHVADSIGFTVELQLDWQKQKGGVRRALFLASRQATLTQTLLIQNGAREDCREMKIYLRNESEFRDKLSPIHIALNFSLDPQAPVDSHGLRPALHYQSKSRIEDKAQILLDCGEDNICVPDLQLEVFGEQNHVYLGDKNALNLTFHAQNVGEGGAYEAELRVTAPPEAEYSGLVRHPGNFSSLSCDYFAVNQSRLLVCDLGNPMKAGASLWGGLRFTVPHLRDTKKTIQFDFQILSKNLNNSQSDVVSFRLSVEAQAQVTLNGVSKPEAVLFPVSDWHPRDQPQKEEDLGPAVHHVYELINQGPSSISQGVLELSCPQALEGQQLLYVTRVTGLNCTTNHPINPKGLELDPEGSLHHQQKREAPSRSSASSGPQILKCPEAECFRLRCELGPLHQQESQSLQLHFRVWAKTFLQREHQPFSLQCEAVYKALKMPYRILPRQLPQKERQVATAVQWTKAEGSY
T1 sequence (P05556 21-728 limits assumed): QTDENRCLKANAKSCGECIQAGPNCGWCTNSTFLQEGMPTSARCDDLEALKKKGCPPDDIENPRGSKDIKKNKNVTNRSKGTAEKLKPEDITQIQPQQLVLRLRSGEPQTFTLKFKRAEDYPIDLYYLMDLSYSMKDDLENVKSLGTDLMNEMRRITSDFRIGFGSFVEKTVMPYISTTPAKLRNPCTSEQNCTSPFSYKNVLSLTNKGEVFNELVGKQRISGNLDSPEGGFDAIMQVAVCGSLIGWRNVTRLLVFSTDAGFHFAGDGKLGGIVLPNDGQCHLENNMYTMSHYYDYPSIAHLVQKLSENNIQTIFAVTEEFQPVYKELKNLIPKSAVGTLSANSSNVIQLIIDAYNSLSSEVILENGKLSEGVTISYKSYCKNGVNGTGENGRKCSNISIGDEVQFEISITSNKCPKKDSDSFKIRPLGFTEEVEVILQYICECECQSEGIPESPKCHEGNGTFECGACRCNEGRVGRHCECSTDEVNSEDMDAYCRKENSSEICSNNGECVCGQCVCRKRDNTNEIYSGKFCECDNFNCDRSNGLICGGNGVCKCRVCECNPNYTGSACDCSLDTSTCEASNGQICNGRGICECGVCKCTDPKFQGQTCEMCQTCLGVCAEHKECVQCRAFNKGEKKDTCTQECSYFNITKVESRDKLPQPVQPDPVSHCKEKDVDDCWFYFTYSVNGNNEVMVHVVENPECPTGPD

In the case of `O=C(O)C[C@H](NC(=O)CNC(=O)c1cc(O)cc(NC2=NCC(O)CN2)c1)c1cc(Cl)cc(C2(CF)CCOCC2)c1` (stereo partly drawn) [Example 20, (3S)-3-(3-chloro-5-(4-(fluoromethyl)tetrahydro-2H-pyran-4-yl)phenyl)-3-(2-(3-hydroxy-5-((5-hydroxy-1,4,5,6-tetrahydropyrimidin-2-yl)amino)benzamido)acetamido)propanoic acid], the IC50 in assay [1] was 2.4 nM; in assay [2], 0.5 nM.

The values above are taken from patent US9085606B2, “Beta amino acid derivatives as integrin antagonists” (Saint Louis University, priority 2012, dated 2015).
